The values below come from patent US20240261274A1, “TREATMENT OF MYC-DRIVEN CANCERS WITH GSPT1 DEGRADERS” (MONTE ROSA THERAPEUTICS, INC., priority 2021, published 2024).

The test system of assay [1] is cells with wildtype (WT) cereblon. The experiment in a line: Viability in cells with wildtype cereblon. Type of assay: cell-based. An excerpt:
X-axis axis represents m concentration of compound 8; y-axis represents viability normalized to DMSO.

Assay [2] deals with T1, GSPT1 (Homo sapiens, UniProt P15170+Q96SW2). The experiment in a line: GSPT1 levels in tumors, PD analysis by western blotting (compound 8). It is filed as in vivo, mice. Also noted: from tissue; host or cells: NCI-H1155 subcutaneous xenograft tumours from BALB/c nude mice. Particulars: 75 mg/kg and 37 mg/kg, respectively; 24 hr post third dose. The protocol:
For the PD analysis, tumors were harvested 24 hr post third dose and GSPT1 total levels in tumors were determined by western blotting analysis. GADPH levels were measured as control Briefly, 30-50 mg of tumor was placed in 350 μL of RIPA buffer containing 1% Protease Inhibitor Cocktail and 1% Phosphatase Inhibitor Cocktail 2. Tumors were grinded using the Tissuelyser LT at 50 Hz for 5 min. the tissue lysates were kept on ice for 30 min, centrifuged at 12,000 rpm at 4° C. for 10 min and protein concentration measured using the Pierce™ BCA Protein Assay Kit as recommended by the manufacturer. Samples were diluted to the same final concentration (at 4 μg/μL) using RIPA buffer plus 4×LDS Sample Buffer and 10× Sample Reducing Agent and subsequently heat denatured at 100° C. for 10 min. Western blot analysis was performed using 5 μL per slot for each sample, loaded on a NuPAGE® 4-12% Bis-Tris gel, probing for GSPT1 (Sigma-HPA052488; 1/250 dilution) and GAPDH as loading control (CST-5174; 1/2000 dilution).

For assay [3], the system named is NSCLC patient derived xenografts. The experiment in a line: Patient derived NSCLC xenograft models (PDX), tumor progression free probability. Type of assay: in vivo, immunodeficient mice. Particulars: high L-Myc or N-Myc expressing PDX models, oral 10 mg/kg daily, progression >800 mm^3. As to the method: Patient derived NSCLC xenograft models (PDX) were made using immunodeficient mice. 14 PDXs were made for high L-Myc or N-Myc expressing NSCLC samples and 19 PDXs were made for low L-Myc or N-Myc expressing NSCLC samples. Animals were divided into a treatment group that received an oral dose of 10 mg/kg Compound 345 daily and a vehicle-only control group. […] Data from these experiments are shown in FIG. 14A (high L-Myc or high N-Myc expressing) and FIG. 14B (low L-Myc or low N-Myc expressing). Tumor progression free probability was plotted over time, with a threshold of tumor progression set at greater than 800 mm^3.
We used log 2FPKM cutoff of 1.5 and 3.4 for N-Myc and L-Myc expression respectively. PDX tumor fragments (2-3 mm in diameter) were inoculated subcutaneously at the upper right dorsal flank of 6-8 weeks old female BALB7c or NODS/CID nude mice. […] Mice were PO dosed with vehicle or Compound 345 at 10 mg/kg daily and tumor volumes recorded at least twice a week. […] For each mouse, we calculated the first day the tumor volume reached 800 mm3 as the endpoint. […] Kaplan-Meier curves were generated in R (ver 4.0.2, survminer package) and log-rank (Mantel-Cox) test P-values were calculated using R (ver 4.0.2, survival package) to assess the differences in survival curves between the Compound 345-treated and vehicle treated samples. […]
(In general: In xenograft studies the graft and the host belong to different species.)

In assay [4] the test system is WSU-DLCL2 triple hit lymphoma cell line derived xenograft. The experiment in a line: WSU-DLCL2 triple hit lymphoma CDX efficacy study. It is filed as in vivo, immunodeficient mice. Particulars: oral daily 3 mg/kg and 10 mg/kg. The protocol: Additionally, cell line derived xenograft (CDX) models were produced for the triple hit lymphoma cell line (WSU-DLCL2) in immunodeficient mice. Oral dosing of Compound 345 was performed daily at doses of 3 mg/kg and 10 mg/kg as well as the CHOP combination (a well-known lymphoma treatment regimen) and a no-drug vehicle control. Tumor volumes were measured (mm^3) at regular intervals over the course of up to 30 days depending on the animal.
In vivo efficacy study: NCI-H1155, MM1 S, WSU-DLCL2, DOHH-2 cells were maintained in vitro in individual medium and conditions as recommended by the providers and incubated at 37° C. in an atmosphere of 5% CO2 in air. 0.5 million (NCI-H1155), 10 million (MM1S) or 5 million (WSU-DLCL2 and DOHH-2) cells were resuspended in typically 0.1-0.2 mL of PBS with Matrigel (50:50) and were inoculated into 6-8 weeks old BALB/c nude female (NCI-H115, WSU-DLCL2), NOD/SCID (MM1S) or CB-17SCID (DOHH-2) mice and allowed to grow to 150-200 mm3 in size. […] Tumor volumes were measured at least twice weekly during the treatment period using a caliper and the volume was expressed in mm3 using the formula: V=0.5 a×b2 where a and b were the long and short diameters of the tumor, respectively. […] Data are expressed as the mean±SEM. All data was analyzed using GraphPad Prism 8.1.2 (GraphPad).

The target of assay [5] is T1, GSPT1. The experiment in a line: GSPT1 levels in NCI-H1155 tumors by western blotting (compound 210). It is filed as in vivo, mice. The arrangement: from tissue; host or cells: NCI-H1155 subcutaneous xenograft tumours from BALB/c nude mice. Particulars: all three dose levels, 6 hours after the third dose. The protocol:
GSPT1 levels in tumors were determined by western blotting 6 hours after the third dose. Western blotting was performed as described previously using GAPDH as loading control.
(In general: In western blotting, separated proteins are transferred to a membrane and probed.)

T1 sequence (P15170 whole entry): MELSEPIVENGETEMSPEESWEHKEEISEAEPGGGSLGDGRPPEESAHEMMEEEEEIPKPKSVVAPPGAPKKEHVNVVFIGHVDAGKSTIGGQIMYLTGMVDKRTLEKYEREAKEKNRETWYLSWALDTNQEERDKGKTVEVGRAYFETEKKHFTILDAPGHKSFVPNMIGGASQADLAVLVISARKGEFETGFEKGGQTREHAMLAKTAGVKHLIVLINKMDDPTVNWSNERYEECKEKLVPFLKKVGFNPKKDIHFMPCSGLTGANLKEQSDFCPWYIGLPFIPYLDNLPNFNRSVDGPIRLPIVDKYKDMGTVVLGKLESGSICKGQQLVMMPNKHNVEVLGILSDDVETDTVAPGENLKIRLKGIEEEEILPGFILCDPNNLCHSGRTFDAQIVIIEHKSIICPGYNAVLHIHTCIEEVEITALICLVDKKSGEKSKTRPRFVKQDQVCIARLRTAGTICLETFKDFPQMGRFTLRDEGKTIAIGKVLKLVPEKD
T1 sequence (Q96SW2 whole entry): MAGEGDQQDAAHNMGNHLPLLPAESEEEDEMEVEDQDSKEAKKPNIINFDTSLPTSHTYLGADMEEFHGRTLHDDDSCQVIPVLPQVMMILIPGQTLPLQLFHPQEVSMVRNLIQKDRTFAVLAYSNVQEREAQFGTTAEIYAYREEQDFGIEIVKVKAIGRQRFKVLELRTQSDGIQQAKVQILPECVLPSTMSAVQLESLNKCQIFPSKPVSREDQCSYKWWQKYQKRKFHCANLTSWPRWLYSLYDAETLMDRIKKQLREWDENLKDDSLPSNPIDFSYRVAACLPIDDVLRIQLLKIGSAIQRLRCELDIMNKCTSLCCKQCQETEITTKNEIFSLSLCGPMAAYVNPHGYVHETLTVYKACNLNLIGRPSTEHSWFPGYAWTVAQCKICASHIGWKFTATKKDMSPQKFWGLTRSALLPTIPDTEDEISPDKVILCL
T1 sequence (Q16531 whole entry partner): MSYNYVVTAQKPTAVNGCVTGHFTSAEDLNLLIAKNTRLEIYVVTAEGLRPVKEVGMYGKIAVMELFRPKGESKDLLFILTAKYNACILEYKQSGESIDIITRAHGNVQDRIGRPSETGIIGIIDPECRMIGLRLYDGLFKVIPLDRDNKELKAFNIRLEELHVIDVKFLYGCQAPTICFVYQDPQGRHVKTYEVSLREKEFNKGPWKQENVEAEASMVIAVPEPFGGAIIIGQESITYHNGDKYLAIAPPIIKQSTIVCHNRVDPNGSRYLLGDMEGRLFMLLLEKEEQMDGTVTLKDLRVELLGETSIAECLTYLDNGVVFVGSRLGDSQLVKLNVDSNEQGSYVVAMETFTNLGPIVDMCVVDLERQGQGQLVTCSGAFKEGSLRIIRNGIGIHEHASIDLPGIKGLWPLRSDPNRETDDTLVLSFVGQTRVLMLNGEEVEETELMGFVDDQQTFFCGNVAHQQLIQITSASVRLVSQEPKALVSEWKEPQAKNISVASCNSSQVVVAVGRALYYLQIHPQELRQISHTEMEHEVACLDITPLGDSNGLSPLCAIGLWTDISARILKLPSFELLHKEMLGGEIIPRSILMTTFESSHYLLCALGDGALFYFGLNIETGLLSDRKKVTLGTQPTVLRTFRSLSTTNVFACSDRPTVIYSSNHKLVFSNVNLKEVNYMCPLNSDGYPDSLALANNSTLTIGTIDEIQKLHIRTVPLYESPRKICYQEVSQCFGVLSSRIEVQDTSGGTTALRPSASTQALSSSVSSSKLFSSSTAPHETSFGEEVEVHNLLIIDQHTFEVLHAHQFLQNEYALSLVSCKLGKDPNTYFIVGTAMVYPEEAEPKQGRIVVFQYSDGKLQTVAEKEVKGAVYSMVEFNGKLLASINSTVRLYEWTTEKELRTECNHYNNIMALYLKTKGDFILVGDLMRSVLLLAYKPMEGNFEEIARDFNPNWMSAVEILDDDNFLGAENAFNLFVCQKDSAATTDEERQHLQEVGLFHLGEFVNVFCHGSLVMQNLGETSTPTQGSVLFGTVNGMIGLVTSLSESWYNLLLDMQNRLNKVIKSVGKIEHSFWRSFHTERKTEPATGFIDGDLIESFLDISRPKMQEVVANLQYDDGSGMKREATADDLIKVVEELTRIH

Regarding `Cc1ccc(NC(=O)NCc2ccc3c(c2)C(=O)N(C2CCC(=O)NC2=O)C3)cc1Cl` (centres unmarked) [Compound 8], the “induction of death (viability normalized to DMSO)” value in assay [1] was “did induce death”. Further, in assay [2], the “GSPT1 levels in tumors” value is listed as “no or insignificant amounts of GSPT1”.
`O=C1CCC(N2Cc3ccc(COC(=O)Nc4cc(OC(F)(F)F)ccc4F)cc3C2=O)C(=O)N1` (centres unmarked) [Compound 345, (2-(2,6-dioxopiperidin-3-yl)-3-oxoisoindolin-5-yl)methyl(2-fluoro-5-(trifluoromethoxy)phenyl)carbamate]: the “tumor progression free probability” value in assay [3] was “significantly extended the probability that an animal remained tumor-free”. Further, the tumor volume entry in assay [4] is reported as “anti-tumor activity”.
With `Cc1ccc(NC(=O)OCc2ccc3c(c2)C(=O)N(C2CCC(=O)NC2=O)C3)cc1Cl` (centres unmarked) [Compound 210], the “GSPT1 degradation in tumors” value in assay [5] was “Complete degradation of GSPT1”.
